Here are results for twelve molecules from patent US4885170A, “Antibiotic A80509” (Eli Lilly and Company, priority 1988, dated 1989).

For this experiment, the system named is Culture A80509. Nature of the experiment: resistance of culture A80509 to antibiotics, sensitivity discs on agar.

Positions of bridges follow the written chain, without caps; N, C: chain ends. Non-standard residues stand in square brackets, D forms with d. Residues, ends and D or L forms follow the SMILES beside them. *: point of attachment. Ileψ(thiazoline)Cys = CC[C@H](C)[C@H](N)C1=N[C@H](C(=O)*)CS1; dOrn = NCCC[C@@H](N)C(=O)O

Consider `CC[C@H](C)[C@H](N)C1=N[C@H](C(=O)N[C@@H](CC(C)C)C(=O)N[C@H](CCC(=O)O)C(=O)N[C@H](C(=O)N[C@H]2CCCCNC(=O)[C@H](CC(N)=O)NC(=O)[C@@H](CC(=O)O)NC(=O)[C@H](Cc3cnc[nH]3)NC(=O)[C@@H](Cc3ccccc3)NC(=O)[C@H]([C@@H](C)CC)NC(=O)[C@@H](CCCN)NC2=O)[C@@H](C)CC)CS1` [bacitracin] ({Ileψ(thiazoline)Cys}-L[dE]IK[dOrn]I[dF]H[dD]N; lactam 4-C), for which the “resistance/sensitivity of culture A80509” value (disc 10 units) is listed as “sensitive”.

On to `CC(=O)OCC1=C(C(=O)O)N2C(=O)[C@@H](NC(=O)Cc3cccs3)[C@H]2SC1` [cephalothin], for which the “resistance/sensitivity of culture A80509” value (disc 30 μg) was “resistant”.

Consider `CCC[C@@H]1C[C@@H](C(=O)N[C@@H]([C@H]2O[C@H](SC)[C@H](O)[C@@H](O)[C@H]2O)[C@@H](C)O)N(C)C1` [lincomycin], for which the “resistance/sensitivity of culture A80509” value (disc 2 μg) is listed as “resistant”.

With `CO[C@H]1C[C@H](O[C@H]2[C@H](C)[C@@H](O[C@@H]3O[C@H](C)C[C@H](N(C)C)[C@H]3O)[C@@H](C)C[C@@]3(CO3)C(=O)[C@H](C)[C@@H](O)[C@@H](C)[C@@H](C)OC(=O)[C@@H]2C)O[C@@H](C)[C@@H]1O` [oleandomycin], the “resistance/sensitivity of culture A80509” value (disc 15 μg) is given as “resistant”.

As to `CC1(C)S[C@@H]2[C@H](NC(=O)Cc3ccccc3)C(=O)N2[C@H]1C(=O)O` [penicillin G], the “resistance/sensitivity of culture A80509” value (disc 10 units) is reported as “resistant”.

Consider `CO[C@H]1/C=C/O[C@@]2(C)Oc3c(C)c(O)c4c(O)c(c(/C=N/N5CCN(C)CC5)c(O)c4c3C2=O)NC(=O)/C(C)=C\C=C\[C@H](C)[C@H](O)[C@@H](C)[C@@H](O)[C@@H](C)[C@H](OC(C)=O)[C@@H]1C` [rifampin], for which the “resistance/sensitivity of culture A80509” value (disc 5 μg) is “sensitive”.

For the molecule `[H]/N=C(/N)N[C@H]1[C@H](O)[C@@H](O)[C@H](O[C@@H]2O[C@@H](C)[C@](O)(C=O)[C@H]2O[C@@H]2O[C@@H](CO)[C@H](O)[C@@H](O)[C@@H]2NC)[C@@H](N/C(N)=N\[H])[C@@H]1O` [streptomycin], the “resistance/sensitivity of culture A80509” value (disc 10 μg) is “sensitive”.

For `CN(C)C1C(=O)C(C(N)=O)=C(O)C2(O)C(=O)C3=C(O)c4c(O)cccc4C(C)(O)C3CC12` (stereo not drawn) [tetracycline], the “resistance/sensitivity of culture A80509” value (disc 30 μg) was “sensitive”.

With `NC[C@H]1O[C@H](O[C@H]2[C@H](O)[C@@H](O[C@H]3O[C@H](CO)[C@@H](O)[C@H](N)[C@H]3O)[C@H](N)C[C@@H]2N)[C@H](N)C[C@@H]1O` [tobramycin], the “resistance/sensitivity of culture A80509” value (disc 10 μg) is given as “sensitive”.

On to `CN[C@H](CC(C)C)C(=O)N[C@H]1C(=O)N[C@@H](CC(N)=O)C(=O)N[C@H]2C(=O)N[C@H]3C(=O)N[C@H](C(=O)N[C@H](C(=O)O)c4cc(O)cc(O)c4-c4cc3ccc4O)[C@H](O)c3ccc(c(Cl)c3)Oc3cc2cc(c3O[C@@H]2O[C@H](CO)[C@@H](O)[C@H](O)[C@H]2O[C@H]2C[C@](C)(N)[C@H](O)[C@H](C)O2)Oc2ccc(cc2Cl)[C@H]1O` [vancomycin], for which the “resistance/sensitivity of culture A80509” value (disc 30 μg) was “sensitive”.

Take gentamicin: the “resistance/sensitivity of culture A80509” value (disc 10 μg) is on record as “sensitive”.

Take neomycin: the “resistance/sensitivity of culture A80509” value (disc 30 μg) is on record as “sensitive”.
